{"source": "patent US20090192135A1", "about": "“Human Niemann Pick C1-Like 1 Gene (NPC1L1) Polymorphisms and Methods of Use Thereof” (SCHERING CORPORATION, priority 2005, published 2009)", "origin": "cited, not measured here", "biological_target": "T1, NPC1L1 (Homo sapiens, UniProt Q9UHC9)", "T1 sequence (Q9UHC9 22-1359)": "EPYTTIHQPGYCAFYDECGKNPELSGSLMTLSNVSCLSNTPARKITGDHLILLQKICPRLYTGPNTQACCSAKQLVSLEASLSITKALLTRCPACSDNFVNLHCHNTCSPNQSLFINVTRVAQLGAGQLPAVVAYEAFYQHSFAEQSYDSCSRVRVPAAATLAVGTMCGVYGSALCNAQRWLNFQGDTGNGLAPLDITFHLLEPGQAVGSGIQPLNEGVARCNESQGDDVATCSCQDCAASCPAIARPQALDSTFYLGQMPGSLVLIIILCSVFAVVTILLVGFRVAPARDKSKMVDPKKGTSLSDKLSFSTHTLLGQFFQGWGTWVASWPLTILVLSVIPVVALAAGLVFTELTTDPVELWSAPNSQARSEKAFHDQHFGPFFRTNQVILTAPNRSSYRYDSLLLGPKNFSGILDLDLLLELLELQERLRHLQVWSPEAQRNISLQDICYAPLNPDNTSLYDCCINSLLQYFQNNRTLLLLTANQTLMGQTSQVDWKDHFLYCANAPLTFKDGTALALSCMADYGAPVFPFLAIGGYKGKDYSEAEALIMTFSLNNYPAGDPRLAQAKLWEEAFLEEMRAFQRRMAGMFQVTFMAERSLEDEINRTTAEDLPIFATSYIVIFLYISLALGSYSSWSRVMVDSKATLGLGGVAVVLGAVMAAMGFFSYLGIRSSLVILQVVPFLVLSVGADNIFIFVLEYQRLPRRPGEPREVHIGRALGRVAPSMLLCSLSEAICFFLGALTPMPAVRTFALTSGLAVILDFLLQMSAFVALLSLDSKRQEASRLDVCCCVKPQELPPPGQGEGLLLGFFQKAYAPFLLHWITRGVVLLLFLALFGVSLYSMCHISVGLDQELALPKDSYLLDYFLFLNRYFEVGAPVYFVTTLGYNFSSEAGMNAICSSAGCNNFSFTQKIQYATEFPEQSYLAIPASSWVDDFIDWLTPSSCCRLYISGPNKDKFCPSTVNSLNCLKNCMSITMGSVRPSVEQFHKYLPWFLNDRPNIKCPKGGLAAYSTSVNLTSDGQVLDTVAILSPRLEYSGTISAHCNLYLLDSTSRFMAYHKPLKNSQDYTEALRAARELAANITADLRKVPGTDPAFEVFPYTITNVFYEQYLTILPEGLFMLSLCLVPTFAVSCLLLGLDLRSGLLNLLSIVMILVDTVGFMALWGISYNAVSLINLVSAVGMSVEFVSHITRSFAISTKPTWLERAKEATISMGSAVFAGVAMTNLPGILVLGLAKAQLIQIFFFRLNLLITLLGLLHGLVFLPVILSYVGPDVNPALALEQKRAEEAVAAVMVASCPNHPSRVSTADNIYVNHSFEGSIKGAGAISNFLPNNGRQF", "conditions": "co-administered with a statin; cited from earlier work"}
{"compound": "O=C1[C@H](CC[C@H](O)c2ccc(F)cc2)[C@@H](c2ccc(O)cc2)N1c1ccc(F)cc1", "note": "[ezetimibe, 1-(4-fluorophenyl)-3(R)-[3-(4-fluorophenyl)-3(S)-hydroxypropyl]-4(S)-(4-hydroxyphenyl)-2-azetidinone]", "values": [{"measurement": "incremental LDL-C reduction attributable to ezetimibe", "result": "14-15%"}]}
